From patent US8158628B2, “Sulfonylated 1,2,3,4-tetrahydropyrrolo[1,2-a]pyrazine compounds and their use as pharmaceuticals” (Gruenenthal GmbH, priority 2009, dated 2012)

The compounds below were run against T1, B1R of the rat (Rattus norvegicus, UniProt P97583) (assay: FLIPR Ca2+ functional assay, B1R antagonism, rat B1R in CHO K1 cells). Conditions: test substance 10 μM; rB1R CHO K1 cells; agonist Des-Arg9 bradykinin at EC80; % of maximum achievable inhibition.
T1 construct: expressed in transfected cells; host or cells: CHO K1 cells (Chinese hamster ovary), stably transfected
T1 sequence (P97583 1-337): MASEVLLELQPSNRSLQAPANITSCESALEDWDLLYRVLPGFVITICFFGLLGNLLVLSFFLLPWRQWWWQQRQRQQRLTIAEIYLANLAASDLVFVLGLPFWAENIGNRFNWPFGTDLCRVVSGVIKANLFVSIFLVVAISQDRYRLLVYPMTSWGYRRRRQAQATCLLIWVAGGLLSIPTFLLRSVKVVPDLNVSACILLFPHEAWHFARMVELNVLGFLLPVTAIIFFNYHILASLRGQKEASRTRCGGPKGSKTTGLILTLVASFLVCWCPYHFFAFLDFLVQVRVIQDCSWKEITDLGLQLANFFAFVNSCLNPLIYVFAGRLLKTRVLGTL
Format: cell-based
Experimental: The agonistic or antagonistic action of substances on the bradykinin 1 receptor (B1R) of the human and rat species can be quantified with ectopically expressing cell lines (CHO K1 cells) and with the aid of a Ca^2+-sensitive dye (Fluo-4) using a fluorescent imaging plate reader (FLIPR). The value in % activation is based on the Ca^2+ signal after addition of Lys-Des-Arg^9 bradykinin (0.5 nM) or Des-Arg^9 bradykinin (100 nM). Antagonists lead to a suppression of the Ca^2+ influx following administration of the agonist. The % inhibition in comparison with the maximum achievable inhibition is indicated.
1. Functional Investigation on the Bradykinin 1 Receptor (B1R) The agonistic or antagonistic action of substances can be determined on the bradykinin 1 receptor (B1R) of the human and rat species with the following assay. According to this assay, the Ca^2+ inflow through the channel is quantified with the aid of a Ca^2+-sensitive dye (Fluo-4 type, Molecular Probes Europe BV, Leiden, Netherlands) in a fluorescent imaging plate reader (FLIPR, Molecular Devices, Sunnyvale, USA). 2. Method: Chinese hamster ovary cells (CHO K1 cells) which are stably transfected with the human B1R gene (hB1R cells) or the B1R gene of the rat (rB1R cells) are used. For functional investigations these cells are plated-out onto black 96-well plates with a clear base (BD Biosciences, Heidelberg, Germany or Greiner, Frickenhausen, Germany) in a density of 20,000-35,000 cells/well. Overnight the cells are incubated at 37° C. and 5% CO2 in culture medium (hB1R cells: Ham's Nutrient Mixture F12, Gibco Invitrogen GmbH, Karlsruhe, Germany or DMEM, Sigma-Aldrich, Taufkirchen, Germany; rB1R cells: D-MEM/F12, Gibco Invitrogen, Karlsruhe, Germany) with 10 vol. % FBS (foetal bovine serum, Gibco Invitrogen GmbH, Karlsruhe, Germany or PAN Biotech GmbH, Aidenbach, Germany).
On the following day the cells are loaded with 2.13 μM Fluo-4 (Molecular Probes Europe BV, Leiden, Netherlands) in HBSS buffer (Hank's buffered saline solution, Gibco Invitrogen GmbH, Karlsruhe, Germany) with 2.5 mM probenecid (Sigma-Aldrich, Taufkirchen, Germany) and 10 mM HEPES (Sigma-Aldrich, Taufkirchen, Germany) for 60 min at 37° C. The plates are subsequently washed twice with HBSS buffer, and HBSS buffer which additionally contains 0.1% BSA (bovine serum albumin; Sigma-Aldrich, Taufkirchen, Germany), 5.6 mM glucose and 0.05% gelatine (Merck KGaA, Darmstadt, Germany) is added. After a further incubation of 20 minutes at RT, the plates are inserted into the FLIPR for Ca^2+ measurement. Alternatively they are washed with buffer A (15 mM HEPES, 80 mM NaCl, 5 mM KCl, 1.2 mM CaCl2, 0.7 mM MgSO4, 2 g/l glucose, 2.5 mM probenecid) and loaded with buffer A with added 2.5 μM Fluo-4 and 0.025% Pluronic F127 (Sigma-Aldrich, Taufkirchen, Germany). The cells are then washed twice with buffer A and incubated for 30 minutes with buffer A, which additionally contains 0.05% BSA and 0.05% gelatine, at RT and then used for Ca^2+ measurement in the FLIPR. The Ca^2+-dependent fluorescence is measured here before and after addition of substances (λex=488 nm, λem=540 nm). The quantification is performed by measuring the highest fluorescence intensity (FC, fluorescence counts) over time.
The FLIPR protocol comprises two additions of substance. Test substances (10 μM) are first pipetted onto the cells and the Ca^2+ inflow is compared with the control (hB1R: Lys-Des-Arg^9 bradykinin >=50 nM; rB1R: Des-Arg^9 bradykinin 10 μM). The value in % activation based on the Ca^2+ signal after addition of Lys-Des-Arg^9 bradykinin (>=50 nM) or Des-Arg^9 bradykinin (10 μM) is obtained therefrom. After incubation for 10-20 minutes, Lys-Des-Arg^9 bradykinin (hB1R) or Des-Arg^9 bradykinin (rB1R) is applied in the EC80 concentration and the inflow of Ca^2+ is likewise determined.
Antagonists lead to a suppression of the Ca^2+ inflow. The % inhibition in comparison with the maximum achievable inhibition is calculated. […]

inhibition at 10 µM [%]	Structure (SMILES)
1.78	O=C(CC1c2cccn2CCN1S(=O)(=O)c1ccccc1)N1CCC[C@H]1CN1CCCC1 (stereo partly drawn) [Example 264, 2-[2-(Benzenesulfonyl)-1,2,3,4-tetrahydro-pyrrolo[1,2-a]pyrazin-1-yl]-1-[(2S)-2-(pyrrolidin-1-yl-methyl)-pyrrolidin-1-yl]-ethanone]
-7.98	O=C(CC1c2cccn2CCN1S(=O)(=O)c1ccc(C(F)(F)F)cc1Cl)N1CCCCC1 (stereo not shown) [Example 19, 2-(2-(2-Chloro-4-(trifluoromethyl)phenylsulfonyl)-1,2,3,4-tetrahydropyrrolo[1,2-a]pyrazin-1-yl)-1-(piperidin-1-yl)ethanone]
-21.5	COc1cc(C)c(S(=O)(=O)N2CCn3cccc3C2CC(=O)N2CCCCC2Cc2ccncc2)c(C)c1 (stereo not shown) [Example 245, 2-[2-[(4-Methoxy-2,6-dimethyl-phenyl)sulfonyl]-1,2,3,4-tetrahydro-pyrrolo[1,2-a]pyrazin-1-yl]-1-[2-(pyridin-4-yl-methyl)-piperidin-1-yl]-ethanone]
50.9	COc1cc(C)c(S(=O)(=O)N2CCn3cccc3C2CC(=O)N2CCN(c3ccc(C(F)(F)F)cn3)CC2)c(C)c1 (stereo not shown) [Example 152, 2-[2-[(4-Methoxy-2,6-dimethyl-phenyl)sulfonyl]-1,2,3,4-tetrahydro-pyrrolo[1,2-a]pyrazin-1-yl]-1-[4-[5-(trifluoromethyl)-pyridin-2-yl]-piperazin-1-yl]-ethanone]
8.4	COc1ccc(CN2CCN(C(=O)CC3c4cccn4CCN3S(=O)(=O)c3c(C)cc(OC)cc3C)CC2)cc1 (stereo not shown) [Example 242, 2-[2-[(4-Methoxy-2,6-dimethyl-phenyl)sulfonyl]-1,2,3,4-tetrahydro-pyrrolo[1,2-a]pyrazin-1-yl]-1-[4-[(4-methoxyphenyl)-methyl]-piperazin-1-yl]-ethanone]
17.3	O=C(CC1c2cccn2CCN1S(=O)(=O)c1ccccc1)N1CCN(Cc2ccccc2F)CC1 (stereo not shown) [Example 234, 2-[2-(Benzenesulfonyl)-1,2,3,4-tetrahydro-pyrrolo[1,2-a]pyrazin-1-yl]-1-[4-[(2-fluorophenyl)-methyl]-piperazin-1-yl]-ethanone]
-12.6	Cc1cccc(Cl)c1S(=O)(=O)N1CCn2cccc2C1CC(=O)N1CCN(Cc2ccc(Cl)cc2)CC1 (stereo not shown) [Example 249, 2-[2-[(2-Chloro-6-methyl-phenyl)sulfonyl]-1,2,3,4-tetrahydro-pyrrolo[1,2-a]pyrazin-1-yl]-1-[4-[(4-chlorophenyl)-methyl]-piperazin-1-yl]-ethanone]
29.8	Cc1cccc(Cl)c1S(=O)(=O)N1CCn2cccc2C1CC(=O)N1CCN(c2ncccc2C#N)CC1 (stereo not shown) [Example 261, 2-[4-[2-[2-[(2-Chloro-6-methyl-phenyl)sulfonyl]-1,2,3,4-tetrahydro-pyrrolo[1,2-a]pyrazin-1-yl]-acetyl]-piperazin-1-yl]-pyridine-3-carbonitrile]
46.8	COc1cc(C)c(S(=O)(=O)N2CCn3cccc3C2CC(=O)N2CCN(Cc3ccc(C)cc3)CC2)c(C)c1 (stereo not shown) [Example 241, 2-[2-[(4-Methoxy-2,6-dimethyl-phenyl)sulfonyl]-1,2,3,4-tetrahydro-pyrrolo[1,2-a]pyrazin-1-yl]-1-[4-(p-tolyl-methyl)-piperazin-1-yl]-ethanone]
40.1	O=C(CC1c2cccn2CCN1S(=O)(=O)c1ccccc1)NCCN1CCCC1 (stereo not shown) [Example 168, 2-[2-(Benzenesulfonyl)-1,2,3,4-tetrahydro-pyrrolo[1,2-a]pyrazin-1-yl]-N-(2-pyrrolidin-1-yl-ethyl)-acetamide]
37.9	COc1cc(C)c(S(=O)(=O)N2CCn3cccc3C2CC(=O)NCCCN2CCOCC2)c(C)c1 (stereo not shown) [Example 142, 2-[2-[(4-Methoxy-2,6-dimethyl-phenyl)sulfonyl]-1,2,3,4-tetrahydro-pyrrolo[1,2-a]pyrazin-1-yl]-N-(3-morpholin-4-yl-propyl)-acetamide]
41.9	Cc1cccc(Cl)c1S(=O)(=O)N1CCn2cccc2C1CC(=O)NCCCN1CCOCC1 (stereo not shown) [Example 154, 2-[2-[(2-Chloro-6-methyl-phenyl)sulfonyl]-1,2,3,4-tetrahydro-pyrrolo[1,2-a]pyrazin-1-yl]-N-(3-morpholin-4-yl-propyl)-acetamide]
84	COc1cc(C)c(S(=O)(=O)N2CCn3cccc3C2CC(=O)NCC2CCCN(Cc3ccccc3)C2)c(C)c1 (stereo not shown) [Example 248, N-[(1-Benzyl-piperidin-3-yl)-methyl]-2-[2-[(4-methoxy-2,6-dimethyl-phenyl)sulfonyl]-1,2,3,4-tetrahydro-pyrrolo[1,2-a]pyrazin-1-yl]-acetamide]
-38	Cc1cccc(Cl)c1S(=O)(=O)N1CCn2cccc2C1CC(=O)N1CCCCC1Cc1ccccn1 (stereo not shown) [Example 250, 2-[2-[(2-Chloro-6-methyl-phenyl)sulfonyl]-1,2,3,4-tetrahydro-pyrrolo[1,2-a]pyrazin-1-yl]-1-[2-(pyridin-2-yl-methyl)-piperidin-1-yl]-ethanone]
9.45	COc1ccc(N2CCN(C(=O)CC3c4cccn4CCN3S(=O)(=O)c3ccc(C(F)(F)F)cc3Cl)CC2)cc1 (stereo not shown) [Example 237, 2-[2-[[2-Chloro-4-(trifluoromethyl)-phenyl]sulfonyl]-1,2,3,4-tetrahydro-pyrrolo[1,2-a]pyrazin-1-yl]-1-[4-(4-methoxyphenyl)-piperazin-1-yl]-ethanone]
28	O=C(CC1c2cccn2CCN1S(=O)(=O)c1ccccc1)N1CCN(c2ccccc2)CC1 (stereo not shown) [Example 174, 2-[2-(Benzenesulfonyl)-1,2,3,4-tetrahydro-pyrrolo[1,2-a]pyrazin-1-yl]-1-(4-phenyl-piperazin-1-yl)-ethanone]
5.54	COc1cc(C)c(S(=O)(=O)N2CCn3cccc3C2CC(=O)N(C)C(CN2CCOCC2)c2ccccc2)c(C)c1 (stereo not shown) [Example 256, 2-[2-[(4-Methoxy-2,6-dimethyl-phenyl)sulfonyl]-1,2,3,4-tetrahydro-pyrrolo[1,2-a]pyrazin-1-yl]-N-methyl-N-(2-morpholin-4-yl-1-phenyl-ethyl)-acetamide]
55.9	COc1cc(C)c(S(=O)(=O)N2CCn3cccc3C2CC(=O)N2CCN(Cc3ccc(Cl)cc3)CC2)c(C)c1 (stereo not shown) [Example 240, 1-[4-[(4-Chlorophenyl)-methyl]-piperazin-1-yl]-2-[2-[(4-methoxy-2,6-dimethyl-phenyl)sulfonyl]-1,2,3,4-tetrahydro-pyrrolo[1,2-a]pyrazin-1-yl]-ethanone]
19.4	CC1CCCC(C)N1CCCNC(=O)CC1c2cccn2CCN1S(=O)(=O)c1cccc(C(F)(F)F)c1 (stereo not shown) [Example 184, N-[3-(2,6-Dimethyl-piperidin-1-yl)-propyl]-2-[2-[[3-(trifluoromethyl)phenyl]sulfonyl]-1,2,3,4-tetrahydro-pyrrolo[1,2-a]pyrazin-1-yl]-acetamide]
